Measured values: patent publication US20250197406A1, “INDAZOLES AS HEMATOPOIETIC PROGENITOR KINASE 1 (HPK1) INHIBITORS AND METHODS FOR USING SAME” (1ST Biotherapeutics, Inc., priority 2022, published 2025)

Target: recombinant human HPK1 (Homo sapiens (Human), UniProt Q92918)
Test: HPK1 kinase assay (Promega ADP-Glo kinase assay)
Assay type: biochemical
Conditions: In vitro activity against HPK1, 5 ng HPK1, MBP substrate, ATP 25 μM, 30° C. 40 minutes
Procedure, shortened: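 ADP-Glo luminescence assay with 5 ng recombinant human HPK1, MBP substrate and ATP (added as 25 µM solution) in Tris pH 7.5, 20 mM MgCl2, BSA, DTT, 0.5% DMSO. Reaction ran 40 min at 30 °C. IC50 was fitted from percent inhibition over an inhibitor concentration range.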

Chain of recombinant human HPK1 (Q92918 whole entry): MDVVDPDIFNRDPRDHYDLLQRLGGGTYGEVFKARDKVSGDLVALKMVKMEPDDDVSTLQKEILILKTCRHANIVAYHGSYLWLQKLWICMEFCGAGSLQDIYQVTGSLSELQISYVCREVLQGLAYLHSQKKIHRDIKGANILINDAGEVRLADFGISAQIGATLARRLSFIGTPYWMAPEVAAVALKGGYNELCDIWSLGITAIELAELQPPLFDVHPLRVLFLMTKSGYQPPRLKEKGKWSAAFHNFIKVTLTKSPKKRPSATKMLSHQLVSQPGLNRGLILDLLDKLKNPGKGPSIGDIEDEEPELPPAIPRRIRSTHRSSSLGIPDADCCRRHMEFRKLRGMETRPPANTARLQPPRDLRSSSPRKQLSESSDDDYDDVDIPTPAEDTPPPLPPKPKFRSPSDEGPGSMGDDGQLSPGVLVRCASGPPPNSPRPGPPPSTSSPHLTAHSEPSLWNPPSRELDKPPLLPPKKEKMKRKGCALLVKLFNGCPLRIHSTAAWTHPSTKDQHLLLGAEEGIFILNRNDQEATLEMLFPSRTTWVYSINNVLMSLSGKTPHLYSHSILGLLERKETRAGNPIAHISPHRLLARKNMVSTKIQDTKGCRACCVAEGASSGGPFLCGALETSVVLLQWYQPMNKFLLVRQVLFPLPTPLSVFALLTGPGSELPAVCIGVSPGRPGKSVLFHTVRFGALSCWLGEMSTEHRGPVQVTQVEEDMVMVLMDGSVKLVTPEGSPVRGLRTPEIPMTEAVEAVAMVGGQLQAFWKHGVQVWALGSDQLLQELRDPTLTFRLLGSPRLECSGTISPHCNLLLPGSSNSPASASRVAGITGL

| IC50 [nM] | Compound |
| --- | --- |
| 501 to 1000 | CC(=O)Nc1cn2cc(-c3c(Cl)c(F)c(CN4CCC(C)(O)C4)c4[nH]ncc34)ncc2n1 (stereo not shown) [Example 159, N-(6-(5-chloro-6-fluoro-7-((3-hydroxy-3-methylpyrrolidin-1-yl)methyl)-1H-indazol-4-yl)imidazo[1,2-a]pyrazin-2-yl)acetamide] |
| < 100 | CCCC(=O)Nc1cn2cc(-c3c(Cl)c(F)c(NC(C)C)c4[nH]ncc34)ncc2n1 [Example 110, N-(6-(5-chloro-6-fluoro-7-(isopropylamino)-1H-indazol-4-yl)imidazo[1,2-a]pyrazin-2-yl)butyramide] |
| < 100 | CC(C)Nc1c(F)c(Cl)c(-c2cn3cc(NC(=O)C4CCC4)nc3cn2)c2cn[nH]c12 [Example 60, N-(6-(5-chloro-6-fluoro-7-(isopropylamino)-1H-indazol-4-yl)imidazo[1,2-a]pyrazin-2-yl)cyclobutanecarboxamide] |
| < 100 | CC(C)Nc1c(F)c(Cl)c(-c2cn3cc(NC(=O)CC4COC4)nc3cn2)c2cn[nH]c12 [Example 116, N-(6-(5-chloro-6-fluoro-7-(isopropylamino)-1H-indazol-4-yl)imidazo[1,2-a]pyrazin-2-yl)-2-(oxetan-3-yl)acetamide] |
| < 100 | CC(N[S+]([O-])C(C)(C)C)c1c(F)c(Cl)c(-c2cn3cc(NC(=O)[C@@H]4C[C@@H]4F)nc3cn2)c2cn[nH]c12 (stereo partly drawn) [Example 86, (1S,2S)-N-(6-(7-(1-((tert-butylsulfinyl)amino)ethyl)-5-chloro-6-fluoro-1H-indazol-4-yl)imidazo[1,2-a]pyrazin-2-yl)-2-fluorocyclopropane-1-carboxamide] |
| 501 to 1000 | CC(=O)Nc1cn2cc(-c3c(Cl)c(F)c(OC4CN(C(=O)CO)C4)c4[nH]ncc34)ncc2n1 [Example 148, N-(6-(5-chloro-6-fluoro-7-((1-(2-hydroxyacetyl)azetidin-3-yl)oxy)-1H-indazol-4-yl)imidazo[1,2-a]pyrazin-2-yl)acetamide] |
| < 100 | CC(C)Nc1c(F)c(Cl)c(-c2cn3cc(NC(=O)[C@@H]4C[C@@H]4CF)nc3cn2)c2cn[nH]c12 [Example 94, (1R,2S)-N-(6-(5-chloro-6-fluoro-7-(isopropylamino)-1H-indazol-4-yl)imidazo[1,2-a]pyrazin-2-yl)-2-(fluoromethyl)cyclopropane-1-carboxamide] |
| < 100 | CC(=O)Nc1cn2cc(-c3c(Cl)c(F)c([C@@H](C)N[S@+]([O-])C(C)(C)C)c4[nH]ncc34)ncc2n1 [Example 135, N-(6-(7-((R)-1-(((R)-tert-butylsulfinyl)amino)ethyl)-5-chloro-6-fluoro-1H-indazol-4-yl)imidazo[1,2-a]pyrazin-2-yl)acetamide] |
| < 100 | CC(=O)NC(C)c1c(F)c(C)c(-c2cn3cc(NC(=O)[C@@H]4C[C@@H]4F)nc3cn2)c2cn[nH]c12 (stereo partly drawn) [Example 70, (1S,2S)-N-(6-(7-(1-acetamidoethyl)-6-fluoro-5-methyl-1H-indazol-4-yl)imidazo[1,2-a]pyrazin-2-yl)-2-fluorocyclopropane-1-carboxamide] |
| 501 to 1000 | CC(=O)Nc1cn2cc(-c3c(Cl)c(F)c(C(C)N4CCC(O)C4)c4[nH]ncc34)ncc2n1 (stereo not shown) [Example 163, N-(6-(5-chloro-6-fluoro-7-(1-(3-hydroxypyrrolidin-1-yl)ethyl)-1H-indazol-4-yl)imidazo[1,2-a]pyrazin-2-yl)acetamide] |
| < 100 | CCNC(=O)Nc1cn2cc(-c3c(Cl)c(F)c(NC(C)C)c4[nH]ncc34)ncc2n1 [Example 119, 1-(6-(5-chloro-6-fluoro-7-(isopropylamino)-1H-indazol-4-yl)imidazo[1,2-a]pyrazin-2-yl)-3-ethylurea] |

Further lines, the molecule ahead of its results:

| Compound | IC50 [nM] |
| --- | --- |
| CCNC(=O)[C@H]1C[C@H]1C(=O)Nc1cn2cc(-c3c(Cl)c(F)c(NC(C)C)c4[nH]ncc34)ncc2n1 [Example 29, (1R,2S)-N1-(6-(5-chloro-6-fluoro-7-(isopropylamino)-1H-indazol-4-yl)imidazo[1,2-a]pyrazin-2-yl)-N2-ethylcyclopropane-1,2-dicarboxamide] | < 100 |
| CC(C)Nc1c(F)c(Cl)c(-c2cn3cc(NC(=O)OC(C)C)nc3cn2)c2cn[nH]c12 [Example 95, isopropyl (6-(5-chloro-6-fluoro-7-(isopropylamino)-1H-indazol-4-yl)imidazo[1,2-a]pyrazin-2-yl)carbamate] | < 100 |
| COC(=O)C1OC(N(c2c(F)c(Cl)c(-c3cn4cc(NC(=O)[C@@H]5C[C@@H]5F)nc4cn3)c3cn[nH]c23)C(C)C)C(OC(C)=O)C(OC(C)=O)C1OC(C)=O (stereo partly drawn) [Example 18, 2-((5-chloro-6-fluoro-4-(2-((1S,2S)-2-fluorocyclopropane-1-carboxamido)imidazo[1,2-a]pyrazin-6-yl)-1H-indazol-7-yl)(isopropyl)amino)-6-(methoxycarbonyl)tetrahydro-2H-pyran-3,4,5-triyl triacetate] | 101 to 500 |
| Cc1c(F)c(C2=CCCC2)c2[nH]ncc2c1-c1cn2cc(NC(=O)[C@@H]3C[C@@H]3F)nc2cn1 [Example 11, (1S,2S)-N-(6-(7-(cyclopent-1-en-1-yl)-6-fluoro-5-methyl-1H-indazol-4-yl)imidazo[1,2-a]pyrazin-2-yl)-2-fluorocyclopropane-1-carboxamide] | < 100 |
| CSC(C)C(=O)Nc1cn2cc(-c3c(Cl)c(F)c(NC(C)C)c4[nH]ncc34)ncc2n1 (stereo not shown) [Example 105, N-(6-(5-chloro-6-fluoro-7-(isopropylamino)-1H-indazol-4-yl)imidazo[1,2-a]pyrazin-2-yl)-2-(methylthio)propanamide] | 101 to 500 |
| COc1c(F)c(C(O)C2CC2)c2[nH]ncc2c1-c1cn2cc(NC(=O)[C@@H]3C[C@@H]3F)nc2cn1 (stereo partly drawn) [Example 127, (1S,2S)-N-(6-(7-(cyclopropyl(hydroxy)methyl)-6-fluoro-5-methoxy-1H-indazol-4-yl)imidazo[1,2-a]pyrazin-2-yl)-2-fluorocyclopropane-1-carboxamide] | < 100 |
| Cc1c(F)c(C(C)N2C(=O)c3ccccc3C2=O)c2[nH]ncc2c1-c1cn2cc(NC(=O)[C@@H]3C[C@@H]3F)nc2cn1 (stereo partly drawn) [Example 68, (1S,2S)-N-(6-(7-(1-(1,3-dioxoisoindolin-2-yl)ethyl)-6-fluoro-5-methyl-1H-indazol-4-yl)imidazo[1,2-a]pyrazin-2-yl)-2-fluorocyclopropane-1-carboxamide] | 101 to 500 |
| Cc1c(F)c(C(O)C2CC2)c2[nH]ncc2c1-c1cn2cc(NC(=O)[C@@H]3C[C@@H]3F)nc2cn1 (stereo partly drawn) [Example 1, (1S,2S)-N-(6-(7-(cyclopropyl(hydroxy)methyl)-6-fluoro-5-methyl-1H-indazol-4-yl)imidazo[1,2-a]pyrazin-2-yl)-2-fluorocyclopropane-1-carboxamide] | < 100 |
| CNC(C)c1c(F)c(C)c(-c2cn3cc(NC(=O)[C@@H]4C[C@@H]4F)nc3cn2)c2cn[nH]c12 (stereo partly drawn) [Example 10, (1S,2S)-2-fluoro-N-(6-(6-fluoro-5-methyl-7-(1-(methylamino)ethyl)-1H-indazol-4-yl)imidazo[1,2-a]pyrazin-2-yl)cyclopropane-1-carboxamide] | 101 to 500 |
| CC(C)(C)[S+]([O-])NC(c1c(F)c(C(F)(F)F)c(-c2cn3cc(NC(=O)[C@@H]4C[C@@H]4F)nc3cn2)c2cn[nH]c12)C1CC1 (stereo partly drawn) [Example 97, (1S,2S)-N-(6-(7-(((tert-butylsulfinyl)amino)(cyclopropyl)methyl)-6-fluoro-5-(trifluoromethyl)-1H-indazol-4-yl)imidazo[1,2-a]pyrazin-2-yl)-2-fluorocyclopropane-1-carboxamide] | < 100 |
| Cc1c(F)c(C(NC(=O)C2CC2)C2CC2)c2[nH]ncc2c1-c1cn2cc(NC(=O)[C@@H]3C[C@@H]3F)nc2cn1 (stereo partly drawn) [Example 67, (1S,2S)-N-(6-(7-(cyclopropanecarboxamido(cyclopropyl)methyl)-6-fluoro-5-methyl-1H-indazol-4-yl)imidazo[1,2-a]pyrazin-2-yl)-2-fluorocyclopropane-1-carboxamide] | < 100 |
| COC(=O)c1c(F)c(NC(C)C)c2[nH]ncc2c1-c1cn2cc(NC(=O)[C@@H]3C[C@@H]3F)nc2cn1 [Example 59, methyl 6-fluoro-4-(2-((1S,2S)-2-fluorocyclopropane-1-carboxamido)imidazo[1,2-a]pyrazin-6-yl)-7-(isopropylamino)-1H-indazole-5-carboxylate] | < 100 |
| CCN(CC)C(=O)[C@H]1C[C@H]1C(=O)Nc1cn2cc(-c3c(Cl)c(F)c(NC(C)C)c4[nH]ncc34)ncc2n1 [Example 26, (1R,2S)-N1-(6-(5-chloro-6-fluoro-7-(isopropylamino)-1H-indazol-4-yl)imidazo[1,2-a]pyrazin-2-yl)-N2,N2-diethylcyclopropane-1,2-dicarboxamide] | < 100 |
| Cc1c(F)c(C(C)N(C)C)c2[nH]ncc2c1-c1cn2cc(NC(=O)[C@@H]3C[C@@H]3F)nc2cn1 (stereo partly drawn) [Example 12, (1S,2S)-N-(6-(7-(1-(dimethylamino)ethyl)-6-fluoro-5-methyl-1H-indazol-4-yl)imidazo[1,2-a]pyrazin-2-yl)-2-fluorocyclopropane-1-carboxamide] | 501 to 1000 |
| CCOC(C)c1c(F)c(C)c(-c2cn3cc(NC(=O)[C@@H]4C[C@@H]4F)nc3cn2)c2cn[nH]c12 (stereo partly drawn) [Example 3, (1S,2S)-N-(6-(7-(1-ethoxyethyl)-6-fluoro-5-methyl-1H-indazol-4-yl)imidazo[1,2-a]pyrazin-2-yl)-2-fluorocyclopropane-1-carboxamide] | 101 to 500 |
| CCC(=O)Nc1cn2cc(-c3c(OC)c(F)c(NC(C)C)c4[nH]ncc34)ncc2n1 [Example 162, N-(6-(6-fluoro-7-(isopropylamino)-5-methoxy-1H-indazol-4-yl)imidazo[1,2-a]pyrazin-2-yl)propionamide] | < 100 |
| Cc1c(F)c(C(C)CN)c2[nH]ncc2c1-c1cn2cc(NC(=O)[C@@H]3C[C@@H]3F)nc2cn1 (stereo partly drawn) [Example 24, (1S,2S)-N-(6-(7-(1-aminopropan-2-yl)-6-fluoro-5-methyl-1H-indazol-4-yl)imidazo[1,2-a]pyrazin-2-yl)-2-fluorocyclopropane-1-carboxamide] | < 100 |
